Source: paper PMC6828666, “Discovery of holoenzyme-disrupting chemicals as substrate-selective CK2 inhibitors” (Scientific Reports, 2019)

Experiments:
[1] = target: T1, CK2 (Homo sapiens, UniProt P68400); experiment: CK2 kinase assay with CK2β-independent peptide substrate […]; assay type: biochemical
T1 construct: made in house; host or cells: Escherichia coli (CK2α)
Protocol: The following peptide substrates were employed: a canonical CK2 peptide substrate […] phosphorylated equally by CK2α and CK2α2β2 (CK2β-independent peptide substrate), and […] exclusively phosphorylated by CK2α2β2 (CK2β-dependent peptide substrate)[4]. GST-Olig2-(1-177), was used as a CK2β-dependent protein substrate.
CK2 kinase assays were performed in a final assay volume of 18 μL containing 3 μL of compounds, 3 μL of CK2α (36 ng) and a mixture of 1 mM peptide substrate, 10 mM MgCl2, and 1 μCi [γ^32P]-ATP. Final concentration of ATP was 100 μM. Assays were performed under linear kinetic conditions for 5 min at room temperature before termination by the addition of 60 μL of 4% TCA. ^32P incorporation in peptide substrate was determined as previously described.
Fig. S6. […] (a) Dose-dependent inhibition of CK2. CK2α (40 nM) was incubated with increasing concentrations of compound 1 (●), 4 (π) or 6 (○) in the presence of 20 nM CK2β. CK2 activity was determined with a saturating concentration of CK2β-dependent peptide substrate. (b) Differential effects of 6 on the phosphorylation of CK2 peptide substrates. CK2α (40 nM) was incubated with increasing concentrations of 6 in the presence of 20 nM CK2β. CK2 activity was determined with a saturating concentration of CK2β-independent peptide substrate (?) or CK2β-dependent peptide substrate (○). […]

[2] = tested on: p21 phosphorylation at Thr145 in MCF10A cells; experiment: Western blot of p21 Thr145 phosphorylation; assay type: cell-based, human; conditions: 24 h
Protocol: Figure 5 Cellular effects of compounds 3, 4 and 6. MCF10A cells were incubated for 24 h with either DMSO or 30 μM TAT or 30 μM TAT-Pc or 25 μM 6 (a) or with increasing concentrations of 6 (b) or 3 (c). MCF10A cells were incubated for 48 h with either DMSO or with increasing concentrations of 3 or 6 (d). Cells were then lysed and analyzed by western blot with the indicated antibodies. Blot images are representative of at least three independent experiments. Uncropped blots are shown in Supplementary Fig. S16. (e) MDA-MB231 cells were treated with 40 μM 6 (⚬), 4 (▴) or 3 (X). (f) MDA-MB231 cells were treated for 30 h with increasing concentrations of 6 (⚬) or 4 (▴). Insert: cells were treated for 30 h with 80 μM 6 or 10 μM CX-4945. (g) Cells were incubated with 80 μM 6 or 4 in the absence or presence of 20 μM Z-VAD. […] (h) MDA-MB231 cells (⚬) or MCF10A cells (⦁) were incubated for 24 h with 80 μM 6. Cell death was automatically quantified from images captured every 3 h for the duration of the experiments using an Essen IncuCyte Zoom live-cell microscopy incubator. Error bars represent the SEM of two biological replicates derived from technical triplicates.
Cells were lysed in RIPA buffer (10 mM Tris-HCl pH 7.4, 150 mM NaCl, 1% Triton X-100, 0.1% SDS, 0.5% DOC and 1 mM EDTA) containing both protease- and phosphatase-inhibitor cocktails (Sigma-Aldrich; P8340, P2850, P5726). Cell homogenates were quantified using BCA protein Assay kit (Thermo Scientific). SDS-PAGE was performed using pre-cast 4–12% gradient gel (Bio-Rad) and submitted to electrophoresis in NuPAGE buffer (150 V for 75 min). Separated proteins at 20 μg/lane were transferred to PVDF membranes (100 V for 60 min). […] Luminata Forte Western HRP substrate (Millipore) was added and membranes were read with Fusion Fx7 (PerkinElmer). […] Images were analyzed and band intensities were quantified using ImageJ software. […]

[3] = tested on: panel of 45 recombinant protein kinases; experiment: Kinase selectivity profiling, whole panel; assay type: biochemical, human; conditions: focused selectivity panel of 45 kinases, 100 μM
Protocol: Kinase selectivity of compound 1 was assessed using a panel of 45 recombinant protein kinases. The assays were performed at 10 μM ATP in the presence of 100 μM inhibitor using the Kinase profiler panel service (Millipore). Inhibition, expressed as the percent of activity determined in the absence of inhibitor, was calculated from the residual activity measured in the presence of 100 μM inhibitor.
Fig. S4. Kinase selectivity profile of compound 1 on a panel of 45 different protein kinases. The assays were performed at 10 μM ATP in the presence of 100 μM compound 1 using the Upstate Kinase Profiler Panel Service (Millipore). Residual activity in presence of 100 μM compound 1 are depicted in (a) and a graphical representation of the inhibition percentage in the presence of 100 μM compound 1 is shown in (b).

[4] = target: CK2α/CK2β interaction (Homo sapiens, UniProt P68400); experiment: In vitro CK2α/CK2β interaction assay ([35S]methionine-labeled CK2α, plate-bound MBP-CK2β); assay type: binding
CK2α/CK2β interaction, sequence (P68400 whole entry): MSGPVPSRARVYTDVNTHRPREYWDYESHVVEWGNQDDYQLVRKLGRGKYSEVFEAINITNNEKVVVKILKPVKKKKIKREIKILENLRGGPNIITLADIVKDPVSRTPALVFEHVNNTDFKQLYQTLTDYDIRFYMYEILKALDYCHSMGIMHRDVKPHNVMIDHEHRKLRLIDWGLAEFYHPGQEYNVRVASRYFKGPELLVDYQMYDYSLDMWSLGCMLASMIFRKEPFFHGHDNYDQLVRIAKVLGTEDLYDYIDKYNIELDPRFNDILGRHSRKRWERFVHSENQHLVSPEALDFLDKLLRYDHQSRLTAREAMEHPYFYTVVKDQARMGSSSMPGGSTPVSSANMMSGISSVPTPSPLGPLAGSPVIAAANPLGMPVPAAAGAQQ
Protocol: The CK2α/CK2β interaction assay involved competition between plate-bound MBP-CK2β and the selected compounds for binding to soluble [^35S]methionine-labeled CK2α (10^5 cpm). The assays were performed in reacti-Bind streptavidin-coated high-binding-capacity 96-well plates (Pierce) in which each well was coated with 250 ng of biotinylated MBP-CK2β in 50 mM Tris/HCl, pH 7.2, and 0.4 M NaCl buffer. The compounds and [^35S]methionine-labeled CK2α were added in each well in the same buffer, incubated for 1 h at room temperature and triple-washed, after which the radioactivity of each well was determined using a scintillation counter. Positive control (100% competition) was determined with a 10-fold molar excess of untagged CK2α, and negative control (0% competition) was performed in the absence of competitor[35].

T1 sequence (P68400 whole entry): as above

COc1[nH]c2ccc(F)cc2c1C(=O)OCC1CCN(CCNS(=O)(=O)c2ccccc2)CC1.Cl [Compound 6]
phosphorylation of the CK2β-independent peptide substrate ([1]; increasing concentrations, 40 nM CK2α, 20 nM CK2β): only weakly affected | concentration at which p21 Thr145 phosphorylation reaches the maximum [2]: 20 µM | p21 Thr145 phosphorylation ([2]; increasing concentrations): striking dose-dependent increase

COc1[nH]c2ccc(F)cc2c1C(=O)OCC1CCN(CCNS(C)(=O)=O)CC1 [Compound 1]
Gini coefficient [3]: 0.81 | IC50 [4]: ~80 µM | reduction of bound radioactive CK2α ([4]; single dose 300 μM): about 75% | inhibition at 50 µM ([1]; at 50 μM, read-out: inhibition of phosphorylation of canonical CK2β-independent peptide substrate): 15%

CS(=O)(=O)NCCN1CCC(COC(=O)c2c[nH]c3ccccc23)CC1 [Compound 3, (1-(2-(Methylsulfonamido)ethyl)piperidin-4-yl)methyl 1H-indole-3-carboxylate]
p21 phosphorylation ([2]; 100 μM): moderate increase
